# Laboratory results from patent US20030092077A1, “Human sperm activator peptides” (priority 2001, published 2003).
# Key:
# human sperm [1] = experiment: Sperm chemotaxis assay with phage displaying the peptide (two-chamber apparatus); assay type: cell-based; details: 37° C. for 1 hr; for sperm count in the lower chamber: one experiment done in triplicate, phage displaying peptide
# Protocol: (§1) Preparation of sperm: One tube (0.5 ml) of a sperm sample was thawed at room temperature for 15-20 mm. As soon as the sperm was thawed, 0.5 ml of Hams-F10 medium was added, and the sample transferred to a 5 ml culture tube. The sperm was diluted to 4 ml with Hams-F10 medium, mixed well, and centrifuged at 2000 rpm for 5 mm. The supernatant was decanted and the cells resuspended in 4 ml of fresh Hams-F 10 medium. The centrifugation was repeated and the clean sperm pellet resuspended in 1 ml Hams-F10 medium. A 50 μl sample aliquot was used per each assay condition.
# Assay: The chambers of the assay apparatus were assembled with 8.iM membranes pre-wetted with Hams-F10 medium. A sample of phage containing a specific peptide sequence or a control peptide sequence was diluted with Hams-F10 medium to give a 100 ml phage containing solution which was placed in the bottom chamber of the apparatus. A sperm sample having at least 1×10^6 sperm was added to the upper chamber. After incubation 37° C. for 1 hr, the sample in the bottom chamber was collected into microfuge tubes and centrifuged at 6000 rpm for 5 mm. The supernatant was removed and the pellet resuspended in suitable volume to be counted in a hemocytometer.
# Results: Various concentrations of phage containing the Husap peptide (TMGFTAPRFPHY; SEQ. ID. NO. 1), phage containing a control sequence (KSLSRHDHIHHH; SEQ. ID. NO. 20) or buffer without phage were used in the assays. Sperm counts 2-15 fold greater in the well containing the Husap peptide displaying phage were consistently obtained when compared to control phage or buffer-alone chambers. For example, in one experiment done in triplicate, the sperm count in the lower chamber was 76×10^4 for the Husap peptide compared to 5×10^4 for the control peptide and 21×10^4 for buffer alone.
# human sperm [2] = experiment: Effect of varying concentrations of Husap peptide on chemotaxis of human sperm; assay type: cell-based; details: 2.8×10^6 sperm in upper chamber, 5 micron membrane, 37° C. 1 h
# Protocol: as §1
# The effect of varying concentrations of the Husap peptide on chemotaxis of human sperm was also determined. Sperm at a concentration of 2.8×10^6 were added to the upper chamber. The peptide concentration in the lower chamber was varied from 0 μl to […] of peptide. Sperm were separated from the lower chamber by a 5 micron membrane filter. The chambers were incubated at 37° C. for 1 h. At the end of the incubation, sperm were collected from the lower chamber and counted in a hemocytometer. The experiment was performed several times with varying peptide concentrations and with 5 and 8 micron membranes.
Substance,sperm count in the lower chamber (human sperm [1]),"Sperm counts, fold greater compared to control phage or buffer-alone chambers (human sperm [1]; phage displaying peptide in bottom chamber, various phage concentrations)",Sperm Count in Lower Chamber (human sperm [2]; HusaP concentration 10 uM),Sperm Count in Lower Chamber (human sperm [2]; HusaP concentration 20 uM),Sperm Count in Lower Chamber (human sperm [2]; HusaP concentration 100 uM)
"NH2-Thr-Met-Gly-Phe-Thr-Ala-Pro-Arg-Phe-Pro-His-Tyr-COOH (H-TMGFTAPRFPHY-OH; listed as Homo sapiens) [Husap peptide, human sperm chemotactic peptide …]",76×10^4,2-15 fold,6 × 10^4,12 × 10^4,52 × 10^4
"KSLSRHDHIHHH [control peptide, reference compound]",5×10^4,–,–,–,–
